Measurements reported in patent US10597388B2, “Pyridazinone herbicides” (FMC CORPORATION, priority 2014, dated 2020).

How the values were obtained:
Assay in all cases: Test C greenhouse herbicide test, pre- and postemergence
Format in all cases: in vivo
[1] = system: barnyardgrass (Echinochloa crus-galli)
Method in brief: (§1)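 Visual 0–100 injury score (100 = complete control) taken against untreated controls after 13–15 d in greenhouse. Test chemicals, formulated in solvent plus surfactant, applied preemergence to seeds in loam–sand soil or postemergence to 1- to 4-leaf plants (2–18 cm).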

[2] = system: blackgrass (Alopecurus myosuroides)
Method in brief: as §1

corn (Zea mays) = system: corn (Zea mays)
Method in brief: as §1

[3] = system: crabgrass, large (large crabgrass, Digitaria sanguinalis)
Method in brief: as §1

[4] = system: foxtail, giant (giant foxtail, Setaria faberii)
Method in brief: as §1

[5] = system: galium (catchweed bedstraw, Galium aparine)
Method in brief: as §1

[6] = system: lambsquarters (Chenopodium album)
Method in brief: as §1

[7] = system: morningglory (Ipomoea coccinea)
Method in brief: as §1

[8] = system: nutsedge, yellow (yellow nutsedge, Cyperus esculentus)
Method in brief: as §1

[9] = system: oilseed rape (Brassica napus)
Method in brief: as §1

[10] = system: ragweed (common ragweed, Ambrosia elatior)
Method in brief: as §1

[11] = system: ryegrass, Italian (Italian ryegrass, Lolium multiflorum)
Method in brief: as §1

soybean (Glycine max) = system: soybean (Glycine max)
Method in brief: as §1

[12] = system: velvetleaf (Abutilon theophrasti)
Method in brief: as §1

[13] = system: waterhemp (common waterhemp, Amaranthus rudis)
Method in brief: as §1

[14] = 4 g ai/ha, preemergence, visual rating, scale 0 to 100 (0 no effect, 100 complete control), 13 to 15 d
[15] = Postemergence, 4 g ai/ha, scale 0 to 100 (0 no effect, 100 complete control)
[16] = Postemergence, 8 g ai/ha, scale 0 to 100 (0 no effect, 100 complete control)
[17] = Postemergence, 16 g ai/ha, scale 0 to 100 (0 no effect, 100 complete control)
[18] = Postemergence, 31 g ai/ha, scale 0 to 100 (0 no effect, 100 complete control)
[19] = Preemergence, 8 g ai/ha, scale 0 to 100, 0 is no effect, 100 is complete control
[20] = Preemergence, 16 g ai/ha, scale 0 to 100, 0 is no effect, 100 is complete control
[21] = Preemergence, 31 g ai/ha, scale 0 to 100, 0 is no effect, 100 is complete control

Cc1ccc2ccc(Cl)cc2c1-c1c(O)c(C)nn(C)c1=O [Compound 144]
75: Plant response rating, Foxtail, Giant [4, 20] | Plant response rating, Nutsedge, Yellow [8, 18]
45: Foxtail, Giant plant response rating [4, 16] | Plant response rating, Ryegrass, Italian [11, 17] | Soybean plant response rating (soybean (Glycine max); [16])
65: Plant response rating, Barnyardgrass [1, 18] | Plant response rating, Lambsquarters [6, 20]
40: Plant response rating, Nutsedge, Yellow [8, 21] | Plant response rating, Soybean (soybean (Glycine max); [16])
25: Plant response rating, Barnyardgrass [1, 16] | Plant response rating, Crabgrass, Large [3, 17] | Plant response rating, Crabgrass, Large [3, 20] | Plant response rating, Lambsquarters [6, 14] | Plant response rating, Morningglory [7, 14] | Plant response rating, Nutsedge, Yellow [8, 20] | Plant response rating, Soybean (soybean (Glycine max); [17]) | Plant response rating, Soybean (soybean (Glycine max); [18]) | Plant response rating, Velvetleaf [12, 14]
70: Plant response rating, Blackgrass [2, 20] | Plant response rating, Foxtail, Giant [4, 18] | Plant response rating, Oilseed Rape [9, 21] | Plant response rating, Ragweed [10, 14] | Plant response rating, Ryegrass, Italian [11, 18] | Plant response rating, Velvetleaf [12, 16]
60: Plant response rating, Crabgrass, Large [3, 21] | Plant response rating, Foxtail, Giant [4, 17] | Plant response rating, Foxtail, Giant [4, 19] | Plant response rating, Nutsedge, Yellow [8, 16] | Plant response rating, Nutsedge, Yellow [8, 17]
20: Plant response rating, Blackgrass [2, 17] | Crabgrass, Large plant response rating [3, 16] | Plant response rating, Crabgrass, Large [3, 16] | Ryegrass, Italian plant response rating [11, 16]
0: Plant response rating, Barnyardgrass [1, 14] | Plant response rating, Barnyardgrass [1, 19] | Plant response rating, Corn (corn (Zea mays); [14]) | Plant response rating, Corn (corn (Zea mays); [15]) | Plant response rating, Corn (corn (Zea mays); [16]) | Plant response rating, Corn (corn (Zea mays); [19]) | Plant response rating, Corn (corn (Zea mays); [20]) | Plant response rating, Corn (corn (Zea mays); [21]) | Plant response rating, Crabgrass, Large [3, 14] | Plant response rating, Oilseed Rape [9, 14] | Plant response rating, Soybean (soybean (Glycine max); [20])
100: Plant response rating, Galium [5, 21] | Plant response rating, Lambsquarters [6, 21] | Plant response rating, Ryegrass, Italian [11, 20] | Plant response rating, Ryegrass, Italian [11, 21] | Plant response rating, Waterhemp [13, 20] | Plant response rating, Waterhemp [13, 21]
80: Galium plant response rating [5, 16] | Lambsquarters plant response rating [6, 16] | Plant response rating, Morningglory [7, 20] | Plant response rating, Ryegrass, Italian [11, 14] | Plant response rating, Waterhemp [13, 14]
98: Plant response rating, Morningglory [7, 17] | Plant response rating, Morningglory [7, 18] | Plant response rating, Ragweed [10, 21]
85: Oilseed Rape plant response rating [9, 16] | Plant response rating, Velvetleaf [12, 18] | Plant response rating, Velvetleaf [12, 20]
95: Plant response rating, Galium [5, 18] | Plant response rating, Galium [5, 20] | Plant response rating, Morningglory [7, 16] | Plant response rating, Oilseed Rape [9, 16] | Plant response rating, Oilseed Rape [9, 17] | Plant response rating, Oilseed Rape [9, 18] | Plant response rating, Ragweed [10, 20] | Plant response rating, Waterhemp [13, 18]
30: Plant response rating, Blackgrass [2, 14] | Plant response rating, Blackgrass [2, 15] | Plant response rating, Blackgrass [2, 16] | Plant response rating, Corn (corn (Zea mays); [18]) | Plant response rating, Crabgrass, Large [3, 18] | Plant response rating, Foxtail, Giant [4, 14]
10: Nutsedge, Yellow plant response rating [8, 16] | Plant response rating, Ragweed [10, 16] | Ragweed plant response rating [10, 16] | Plant response rating, Soybean (soybean (Glycine max); [14])
5: Plant response rating, Barnyardgrass [1, 20] | Plant response rating, Corn (corn (Zea mays); [17]) | Plant response rating, Crabgrass, Large [3, 19] | Plant response rating, Nutsedge, Yellow [8, 14] | Plant response rating, Oilseed Rape [9, 20] | Plant response rating, Soybean (soybean (Glycine max); [21])
35: Plant response rating, Barnyardgrass [1, 17] | Plant response rating, Barnyardgrass [1, 21] | Plant response rating, Blackgrass [2, 18] | Plant response rating, Ragweed [10, 17] | Plant response rating, Ragweed [10, 18] | Plant response rating, Ryegrass, Italian [11, 16]
50: Plant response rating, Foxtail, Giant [4, 16] | Velvetleaf plant response rating [12, 16]
15: Plant response rating, Barnyardgrass [1, 15]
55: Plant response rating, Blackgrass [2, 19]
90: Plant response rating, Blackgrass [2, 21] | Plant response rating, Foxtail, Giant [4, 21] | Plant response rating, Galium [5, 14] | Plant response rating, Galium [5, 16] | Plant response rating, Galium [5, 17] | Plant response rating, Lambsquarters [6, 16] | Plant response rating, Lambsquarters [6, 17] | Plant response rating, Lambsquarters [6, 18] | Morningglory plant response rating [7, 16] | Plant response rating, Morningglory [7, 21] | Plant response rating, Velvetleaf [12, 17] | Plant response rating, Velvetleaf [12, 21] | Plant response rating, Waterhemp [13, 16] | Waterhemp plant response rating [13, 16] | Plant response rating, Waterhemp [13, 17]
